# According to patent publication US20030114445A1, “N3-substituted 6-anilinopyrimidines and methods to treat-Gram-positive bacterial and mycoplasmal infections” (priority 2001, published 2003):
# pKi: −log10 of the molar value. Read-outs that look alike come from different tables or passages of the source.
# Legend:
# [1] = Water solubility; format: physicochemical; settings: 25° C. stated for Compound 35
# Source text: The compounds described herein have increased water solubility; some of the compounds can form salts, such as with inorganic or organic acids or with alkali metal bases, thus greatly increasing their solubilities. […] The improved water solubilities are a distinct advantage in formulation and in dosing of animals for testing, and for ultimate therapeutic use in humans.
# [2] = Pharmacokinetics in mice (plasma concentration by HPLC); format: in vivo; settings: saline solution
# Source text: Compound 59 was given to mice in simple saline solutions by various routes—subcutaneous (sc), intravenous (iv), and orally (po). High performance liquid chromatography (HPLC) on a reverse phase C 18 column was used to monitor the concentration of the compound in animal plasma, and the results were plotted as a function of time, as shown in FIG. 1.
# Tmax, time to peak concentration; Cmax, peak concentration; T½, half-life; AUC(0-t), area under the curve, from 0 to time t; AUC(0-60), area under the curve, from 0 to 60 minutes; Vd, volume of distribution; Cl, clearance.
# [3] = tested on: S. aureus (Smith strain); experiment: Efficacy, sc dosing of mice infected ip with S. aureus; format: in vivo; settings: Compound 59 given sc, relative to vehicle control, FIG. 3
# Source text: Compound 59 was give by the sc route to mice infected by the ip route with S. aureus (Smith strain).
# [4] = tested on: S. aureus (Smith strain); experiment: Efficacy, ip dosing of mice infected with S. aureus; format: in vivo; settings: suspensions in saline, 5 animals, FIG. 2
# Source text: Compounds 12, 19, 26, and 29 were given by the intraperitoneal (ip) route as suspensions in saline to mice previously infected with S. aureus (Smith strain). Vancomycin was used as a positive drug control and saline was used as a negative vehicle control.
# [5] = biological target: B.subtilis pol IIIC (Bacillus subtilis, UniProt P13267); experiment: biochemical; settings: truncated assay, apparent inhibitor constant; read-out: K1 B.subtilis pol IIIC
# B.subtilis pol IIIC, sequence (P13267 whole entry, the tested form may be a part): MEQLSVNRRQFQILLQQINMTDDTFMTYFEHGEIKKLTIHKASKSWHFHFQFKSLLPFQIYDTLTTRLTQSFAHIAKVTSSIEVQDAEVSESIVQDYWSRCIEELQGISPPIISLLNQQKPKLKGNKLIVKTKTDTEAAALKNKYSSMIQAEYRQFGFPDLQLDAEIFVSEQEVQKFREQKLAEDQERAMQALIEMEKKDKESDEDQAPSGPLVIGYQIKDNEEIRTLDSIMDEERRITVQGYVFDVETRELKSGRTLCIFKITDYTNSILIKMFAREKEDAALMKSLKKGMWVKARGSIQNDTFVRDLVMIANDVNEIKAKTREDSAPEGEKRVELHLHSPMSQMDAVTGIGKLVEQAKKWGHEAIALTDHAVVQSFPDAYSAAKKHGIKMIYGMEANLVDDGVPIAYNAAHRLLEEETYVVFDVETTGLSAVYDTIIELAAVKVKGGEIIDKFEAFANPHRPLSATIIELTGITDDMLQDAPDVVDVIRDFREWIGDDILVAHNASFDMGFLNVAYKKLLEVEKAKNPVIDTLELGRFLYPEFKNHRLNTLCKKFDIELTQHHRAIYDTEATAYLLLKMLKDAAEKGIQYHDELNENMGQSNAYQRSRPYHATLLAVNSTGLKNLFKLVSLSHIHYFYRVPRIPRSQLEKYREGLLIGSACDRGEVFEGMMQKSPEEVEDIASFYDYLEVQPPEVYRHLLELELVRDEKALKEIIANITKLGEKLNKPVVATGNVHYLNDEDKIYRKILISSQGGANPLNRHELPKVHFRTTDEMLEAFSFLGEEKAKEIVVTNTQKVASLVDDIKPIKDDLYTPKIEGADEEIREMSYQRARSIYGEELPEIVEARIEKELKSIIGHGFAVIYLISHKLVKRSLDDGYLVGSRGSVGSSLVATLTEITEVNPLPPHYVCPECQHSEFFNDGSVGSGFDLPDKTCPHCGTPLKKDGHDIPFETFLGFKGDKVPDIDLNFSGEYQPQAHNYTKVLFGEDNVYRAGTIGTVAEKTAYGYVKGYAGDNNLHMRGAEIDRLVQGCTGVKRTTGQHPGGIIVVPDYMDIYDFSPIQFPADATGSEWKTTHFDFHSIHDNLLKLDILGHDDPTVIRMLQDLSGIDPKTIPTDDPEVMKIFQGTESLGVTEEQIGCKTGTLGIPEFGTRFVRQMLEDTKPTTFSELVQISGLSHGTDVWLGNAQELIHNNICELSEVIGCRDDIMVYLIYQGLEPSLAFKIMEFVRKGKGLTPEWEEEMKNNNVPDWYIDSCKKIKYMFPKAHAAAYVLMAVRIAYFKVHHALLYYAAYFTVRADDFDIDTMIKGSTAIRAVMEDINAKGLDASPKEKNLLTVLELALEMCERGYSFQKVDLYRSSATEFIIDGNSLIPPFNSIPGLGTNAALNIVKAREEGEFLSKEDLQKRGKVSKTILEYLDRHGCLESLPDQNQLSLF
# In short: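 Purified pol IIIC incorporating [3H]-dTMP into nicked calf-thymus DNA with Mg2+, DTT and glycerol, 10 min at 30 °C; acid-insoluble radioactivity counted, in triplicate.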
# [6] = tested on: S.aureus (Smith); experiment: Inhibition of bacterial growth on agar plates (MIC); format: cell-based; settings: Staphylococcus aureus, 37° C., 24 hours
# In short: (§1)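 Agar dilution: compounds from DMSO or water stocks mixed into medium with 1.3% agar at 60° C; 500-1000 CFU plated, incubated 37° C for 24 hours. MIC is the lowest concentration with no colony formation.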
# [7] = tested on: E. fecium; experiment: as above; format: cell-based; settings: 37° C., 24 hours
# In short: as §1
# [8] = tested on: B. subtilis; experiment: as above; format: cell-based; settings: Bacillus subtilis, 37° C., 24 hours
# In short: as §1
# [9] = tested on: E. fecalis; experiment: as above; format: cell-based; settings: 37° C., 24 hours
# In short: as §1
smiles,measurement,setting,value
"CCc1cc(Nc2cc(=O)n(CCCCN3CCOCC3)c(=O)[nH]2)ccc1C.Cl [Compound 59, 3-[4-(N-morpholino)butyl]-6-(3-ethyl-4-methylanilino)uracil hydrochloride]",solubility,[1],> 60 mg/mL
same,AUC(0-t),"[2]; mouse, plasma, iv, 20 mg/kg, iv, 20 mg/kg, 0-120, read-out: AUC(0-t) (converted)",3900 ng·h/mL
same,AUC(0-t),"[2]; mouse, plasma, iv, 20 mg/kg, iv, 20 mg/kg, read-out: AUC(0-60) (converted)",3400 ng·h/mL
same,Cmax,"[2]; mouse, plasma, iv, 20 mg/kg",27400 ng/mL
same,clearance,"[2]; mouse, plasma, iv, 20 mg/kg",77 mL/min/kg
same,half-life,"[2]; mouse, plasma, iv, 20 mg/kg",39 min
same,Tmax,"[2]; mouse, plasma, iv, 20 mg/kg, ncm fit",0 min
same,Vd,"[2]; mouse, plasma, iv, 20 mg/kg, read-out: Vd",4.3 L/kg
same,bioavailability,"[2]; mouse, plasma, po, read-out: oral bioavailability (absorbed from the po route)",~50%
same,Cmax,"[2]; mouse, plasma, sc, 20 mg/kg",4600 ng/mL
same,Tmax,"[2]; mouse, plasma, sc, 20 mg/kg",5 min
same,half-life,"[2]; mouse, plasma, sc, 20 mg/kg",149 min
same,AUC(0-t),"[2]; mouse, plasma, sc, 20 mg/kg, sc, 20 mg/kg, (0-180), read-out: AUC(0-t) (converted)",6770 ng·h/mL
same,AUC(0-t),"[2]; mouse, plasma, sc, 20 mg/kg, sc, 20 mg/kg, read-out: AUC(0-60) (converted)",3330 ng·h/mL
same,Cmax,"[2]; mouse, plasma, sc, 200 mg/kg",15000 ng/mL
same,Tmax,"[2]; mouse, plasma, sc, 200 mg/kg",30 min
same,half-life,"[2]; mouse, plasma, sc, 200 mg/kg",132 min
same,AUC(0-t),"[2]; mouse, plasma, sc, 200 mg/kg, sc, 200 mg/kg, (0-180), read-out: AUC(0-t) (converted)",26900 ng·h/mL
same,AUC(0-t),"[2]; mouse, plasma, sc, 200 mg/kg, sc, 200 mg/kg, read-out: AUC(0-60) (converted)",10600 ng·h/mL
same,Cmax,"[2]; mouse, plasma, sc, 400 mg/kg",24100 ng/mL
same,Tmax,"[2]; mouse, plasma, sc, 400 mg/kg",30 min
same,half-life,"[2]; mouse, plasma, sc, 400 mg/kg",373 min
same,AUC(0-t),"[2]; mouse, plasma, sc, 400 mg/kg, sc, 400 mg/kg, (0-360), read-out: AUC(0-t) (converted)",75000 ng·h/mL
same,AUC(0-t),"[2]; mouse, plasma, sc, 400 mg/kg, sc, 400 mg/kg, read-out: AUC(0-60) (converted)",19800 ng·h/mL
same,Cl,"[2]; sc, 20 mg/kg",30.2 mL/min/kg
same,Vd,"[2]; sc, 20 mg/kg",6.5 L/kg
same,absorption by the sc route,[2]; sc,completely absorbed
same,survival of infected mice,[3],prolonged the survival time of mice relative to vehicle control
"CN[C@H](CC(C)C)C(=O)N[C@H]1C(=O)N[C@@H](CC(N)=O)C(=O)N[C@H]2C(=O)N[C@H]3C(=O)N[C@H](C(=O)N[C@H](C(=O)O)c4cc(O)cc(O)c4-c4cc3ccc4O)[C@H](O)c3ccc(c(Cl)c3)Oc3cc2cc(c3O[C@@H]2O[C@H](CO)[C@@H](O)[C@H](O)[C@H]2O[C@H]2C[C@](C)(N)[C@H](O)[C@H](C)O2)Oc2ccc(cc2Cl)[C@H]1O [Vancomycin, reference compound]",animals protected,[4],protected all animals
same,survival of infected mice,[3],protected the animals from this infection
"CCc1cc(Nc2cc(=O)n(CCCCN3CCOCC3)c(=O)[nH]2)ccc1C [Compound 35, 3-[4-(N-morpholino)butyl]-6-(3-ethyl-4-methylanilino)uracil]",solubility,[1],< 1 mg/mL
same,pKi,[5],7.32
same,MIC,[6],5 µg/mL
same,MIC,[7],2.5 µg/mL
same,MIC,[8],2.5 µg/mL
same,MIC,[9],5 µg/mL
